Test: mn = molality of the nth substance listed, in mol/kg
Settings: for surface tension liquid-gas: Ring tensiometer; for electrical conductivity: 100 kPa, Liquid, Alternating current cell with electrodes

CCCCCCCC[NH+](CCO)CC(C)O.[Cl-] (centres undefined) + O
Settings | electrical conductivity [S/m] | surface tension liquid-gas [mN/m]
293.15 K, m1 = 1.867e-05 | – | 62.99
293.15 K, m1 = 1.87e-05 | 0.00057 | –
293.15 K, m1 = 3.733e-05 | – | 56.87
293.15 K, m1 = 3.99e-05 | 0.000652 | –
293.15 K, m1 = 6.12e-05 | 0.000733 | –
293.15 K, m1 = 8.25e-05 | 0.000815 | –
293.15 K, m1 = 9.334e-05 | – | 47.51
293.15 K, m1 = 0.0001038 | 0.000896 | –
293.15 K, m1 = 0.0001251 | 0.000978 | –
293.15 K, m1 = 0.0001464 | 0.00106 | –
293.15 K, m1 = 0.0001676 | 0.00114 | –
293.15 K, m1 = 0.0001867 | – | 40.52
293.15 K, m1 = 0.0001889 | 0.00122 | –
293.15 K, m1 = 0.0002102 | 0.0013 | –
293.15 K, m1 = 0.0002315 | 0.00138 | –
293.15 K, m1 = 0.0002528 | 0.00147 | –
293.15 K, m1 = 0.000274 | 0.00155 | –
293.15 K, m1 = 0.00028 | – | 36.28
293.15 K, m1 = 0.0002953 | 0.00163 | –
293.15 K, m1 = 0.0003166 | 0.00171 | –
293.15 K, m1 = 0.0003379 | 0.00179 | –
293.15 K, m1 = 0.0003592 | 0.00187 | –
293.15 K, m1 = 0.0003734 | – | 33.31
293.15 K, m1 = 0.0003805 | 0.00196 | –
293.15 K, m1 = 0.0004017 | 0.00204 | –
293.15 K, m1 = 0.000423 | 0.00212 | –
293.15 K, m1 = 0.0004436 | – | 31.33
293.15 K, m1 = 0.0004443 | 0.0022 | –
293.15 K, m1 = 0.0004687 | 0.00226 | –
293.15 K, m1 = 0.0004932 | 0.00233 | –
293.15 K, m1 = 0.0005177 | 0.00239 | –
293.15 K, m1 = 0.0005421 | 0.00246 | –
293.15 K, m1 = 0.0005666 | 0.00252 | –
293.15 K, m1 = 0.000591 | 0.00259 | –
293.15 K, m1 = 0.0006155 | 0.00266 | –
293.15 K, m1 = 0.0006399 | 0.00272 | –
293.15 K, m1 = 0.0006644 | 0.00279 | –
293.15 K, m1 = 0.0006888 | 0.00285 | –
293.15 K, m1 = 0.0007133 | 0.00292 | –
293.15 K, m1 = 0.0007378 | 0.00298 | –
293.15 K, m1 = 0.0007622 | 0.00305 | –
293.15 K, m1 = 0.0007867 | 0.00312 | –
293.15 K, m1 = 0.0008111 | 0.00318 | –
293.15 K, m1 = 0.0008356 | 0.00325 | –
293.15 K, m1 = 0.00086 | 0.00331 | –
293.15 K, m1 = 0.0008845 | 0.00338 | –
293.15 K, m1 = 0.0009089 | 0.00345 | –
293.15 K, m1 = 0.0009334 | 0.00352 | 30.74
293.15 K, m1 = 0.001867 | – | 30.15
293.15 K, m1 = 0.0028 | – | 29.89
293.15 K, m1 = 0.003733 | – | 30
298.15 K, m1 = 1.867e-05 | – | 58.01
298.15 K, m1 = 1.87e-05 | 0.00071 | –
298.15 K, m1 = 3.733e-05 | – | 52.03
298.15 K, m1 = 3.79e-05 | 0.000793 | –
298.15 K, m1 = 5.71e-05 | 0.000877 | –
298.15 K, m1 = 7.64e-05 | 0.00096 | –
298.15 K, m1 = 9.334e-05 | – | 43.52
298.15 K, m1 = 9.56e-05 | 0.00104 | –
298.15 K, m1 = 0.0001148 | 0.00113 | –
298.15 K, m1 = 0.000134 | 0.00121 | –
298.15 K, m1 = 0.0001533 | 0.00129 | –
298.15 K, m1 = 0.0001725 | 0.00138 | –
298.15 K, m1 = 0.0001867 | – | 36.81
298.15 K, m1 = 0.0001917 | 0.00146 | –
298.15 K, m1 = 0.0002109 | 0.00154 | –
298.15 K, m1 = 0.0002302 | 0.00163 | –
298.15 K, m1 = 0.0002494 | 0.00171 | –
298.15 K, m1 = 0.0002686 | 0.00179 | –
298.15 K, m1 = 0.00028 | – | 33.44
298.15 K, m1 = 0.0002879 | 0.00188 | –
298.15 K, m1 = 0.0003071 | 0.00196 | –
298.15 K, m1 = 0.0003263 | 0.00204 | –
298.15 K, m1 = 0.0003455 | 0.00213 | –
298.15 K, m1 = 0.0003648 | 0.00221 | –
298.15 K, m1 = 0.000384 | 0.0023 | –
298.15 K, m1 = 0.0004032 | 0.00238 | –
298.15 K, m1 = 0.0004088 | – | 30.57
298.15 K, m1 = 0.0004364 | 0.00249 | –
298.15 K, m1 = 0.0004695 | 0.0026 | –
298.15 K, m1 = 0.0005026 | 0.00271 | –
298.15 K, m1 = 0.0005358 | 0.00282 | –
298.15 K, m1 = 0.0005689 | 0.00294 | –
298.15 K, m1 = 0.000602 | 0.00305 | –
298.15 K, m1 = 0.0006352 | 0.00316 | –
298.15 K, m1 = 0.0006683 | 0.00327 | –
298.15 K, m1 = 0.0007014 | 0.00338 | –
298.15 K, m1 = 0.0007346 | 0.00349 | –
298.15 K, m1 = 0.0007677 | 0.00361 | –
298.15 K, m1 = 0.0008009 | 0.00372 | –
298.15 K, m1 = 0.000834 | 0.00383 | –
298.15 K, m1 = 0.0008671 | 0.00394 | –
298.15 K, m1 = 0.0009003 | 0.00405 | –
298.15 K, m1 = 0.0009334 | 0.00417 | 29.9
298.15 K, m1 = 0.001867 | – | 29.43
298.15 K, m1 = 0.0028 | – | 29
298.15 K, m1 = 0.003733 | – | 28.91
